Results as given in patent US20060194259A1, “Method for isolating an allosteric effector of a receptor” (priority 2002, published 2006).

Assays:
receptor EGFP-NK2R [1] = target: T1, receptor EGFP-NK2R (UniProt P16610); experiment: Reversion of the binding of NKA-Bo to EGFP-NK2R by fluorescence energy transfer; parameters: % al (max): maximum value observed for the increase in amplitude of the rapid dissociation rate; ns = n; other: 20 nM of NK; % al (at 10 μM); other: compou; fused on or other part: EGFP fused to the receptor as FRET donor; conditions: for % bond reversion (at 10 μM): compound 10 μM; for IC50: read-out: IC50 (μM): concentration of compound for which a 50% reduction is observed in the binding of NKA-Bo, 20 nM of NKA-Bo, EGFP-NK2R receptor
T1 sequence (P16610 1-390): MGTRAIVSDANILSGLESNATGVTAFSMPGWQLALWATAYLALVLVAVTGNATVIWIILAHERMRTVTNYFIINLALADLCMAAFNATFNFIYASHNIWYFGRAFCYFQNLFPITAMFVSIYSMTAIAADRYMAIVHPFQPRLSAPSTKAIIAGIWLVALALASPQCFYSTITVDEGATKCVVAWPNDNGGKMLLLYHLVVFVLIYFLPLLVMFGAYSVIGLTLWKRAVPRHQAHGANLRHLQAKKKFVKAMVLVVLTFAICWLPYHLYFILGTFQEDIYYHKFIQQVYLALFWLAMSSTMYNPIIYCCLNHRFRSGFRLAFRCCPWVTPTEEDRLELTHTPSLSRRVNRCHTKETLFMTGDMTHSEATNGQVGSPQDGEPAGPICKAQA
Excerpt: (§1) The amplitude of each relaxation is then given by the adjustment of the experimental traces.

receptor EGFP-NK2R [2] = target: T1, receptor EGFP-NK2R; experiment: Dissociation kinetics of NKA-Bo bound to EGFP-NK2R by fluorescence energy transfer; format: binding; parameters: % al (max): maximum value observed for the increase in amplitude of the rapid dissociation rate; ns = n; other: 20 nM of NK; % al (at 10 μM); other: compou; fused on or other part: EGFP fused to the receptor as FRET donor; conditions: for % al (at 10 μM): compound 10 μM, T = 22 ± 1 is amplitude of rapid dissociation in the absence of effector; for % al (max): maximum value observed for the increase in amplitude of the rapid dissociation rate / EC50 / EC50 (μM): concentration of compound causing a 50% increase (relative to the maximum value) in the percentage of the amplitude of the rapid dissociation rate: Table 1, ns = not significant; for EC50: read-out: EC50 (μM): concentration of compound causing a 50% increase (relative to the maximum value) in the percentage of the amplitude of the rapid dissociation rate; for EC50 / EC50 (μM): concentration of compound causing a 50% increase (relative to the maximum value) in the percentage of the amplitude of the rapid dissociation rate: dissociation of NKA-Bo from EGFP-NK2R
Protocol: Dissociation (FIG. 4B): HEK 293 cells expressing the receptor EGFP-NK2R are put into suspension at a concentration of 1,000,000 cells/ml in Hepes physiological buffer (in mM: 137.5 NaCl; 1.25 MgCl2; 1.25 CaCl2; 6 KCl; 5.6 glucose; 10 Hepes; 0.4 NaH2PO4; 1% BSA (w/v); pH 7.4) and arranged in a 1 ml cuvette equipped with a magnetic stirrer on the cuvette holder of a SPEX fluorolog 3 spectrofluorimeter.
as §1

[3] = system: cells not expressing the EGFP-NK2R receptor; experiment: Calcium response on cells not expressing the receptor; format: cell-based; parameters: key: ns: not significant; ?: uniterpretable; conditions: Table 1
[4] = in the presence of 50 μM compound, dissociation by non-fluorescent NKA

Row | Structure (SMILES) | % bond reversion (at 10 μM) (receptor EGFP-NK2R [1]) | % al (at 10 μM) (receptor EGFP-NK2R [2]) | % al (max): maximum value observed for the increase in amplitude of the rapid dissociation rate (receptor EGFP-NK2R [2]) | EC50 (receptor EGFP-NK2R [2]) | IC50 (receptor EGFP-NK2R [1]) | Ca Rep.: ability to evoke a calcium response on cells not expressing the EGFP-NK2R receptor [3] | also measured
1 | N#CCN(Cc1ccccc1)Cc1cccc(Br)c1 [CV1-84, [benzyl(3-bromobenzyl)amino]acetonitrile] | 4% | 25% |  |  |  |  | 
2 | N#CCN(Cc1ccccc1)Cc1ccc(Br)cc1 [CV1-85, [benzyl(4-bromobenzyl)amino]acetonitrile] | 4% | 28% |  |  |  |  | 
3 | N#CCN(Cc1ccc(Br)cc1)Cc1ccc2ccccc2c1 [CV1-93, [4-bromobenzyl(2-naphthylmethyl)amino]acetonitrile] | 3% | 26% |  |  |  |  | 
4 | N#CCN(Cc1ccccc1)Cc1cccc(Cl)c1Cl [CV1-97] | 15% | 34% |  |  |  |  | 
5 | N#CCN(Cc1ccccc1)Cc1ccc(Cl)cc1 [CV1-122] | 17% | 31% |  |  |  |  | 
6 | N#CCN(Cc1ccccc1)Cc1cccc(Cl)c1 [CV1-123] | 7% | 26% |  |  |  |  | 
7 | CCOC(=O)c1ccc(CN(CC#N)Cc2ccc3ccccc3c2)cc1 [G11, 4-[(Cyanomethyl-naphthalen-2-ylmethyl-amino)-methyl]-benzoic acid ethyl ester] |  |  | 70% | 10 to 30 µM | > 100 µM | ns | 
8 | Nc1ccc(CNCc2ccc3ccccc3c2)cc1 [H3, 4-{[(Naphthalen-2-ylmethyl)-amino]-methyl}-phenylamine] |  |  | ns |  | > 50 µM | ns | EC50 (μM): concentration of compound causing a 50% increase (relative to the maximum value) in the percentage of the amplitude of the rapid dissociation rate (receptor EGFP-NK2R [2]): ns
9 | N#CCN(Cc1ccc(Cl)cc1)Cc1ccc2ccccc2c1 [NP234 or 801, [(4-chlorobenzyl)(2-naphthylmethyl)amino]acetonitrile] |  |  | 60-70% | 5 to 10 µM | 110 µM | ns | 
10 | N#CCN(Cc1ccc(Cl)c(Cl)c1)Cc1ccc2ccccc2c1 [NP246 or 803, [(3,4-dichlorobenzyl)(2-naphthylmethyl)amino]acetonitrile] |  |  | 60-70% | 10 to 30 µM | > 500 µM | ns | fraction of receptors in the low-affinity state (receptor EGFP-NK2R [2]; at 100 μM of effector, approximately 25% in the absence of effector): ~100%
11 | CC(=O)NC1(c2ccccc2)CCN(CC[C@H](CN(C)C(=O)c2ccccc2)c2ccc(Cl)c(Cl)c2)CC1 [SR 48968, reference compound] |  |  |  |  |  |  | ratio of rapid/slow amplitudes of dissociation of NKA-Bo (receptor EGFP-NK2R [2]; each tested concentration of SR 48968): 45/55; relative amplitude of rapid dissociation (0.04 s^-1) of NKA-Bo (receptor EGFP-NK2R [2]; in the presence of 0.2, 1 and 5 nM of SR 48968): 45%
12 | N#CCN(Cc1ccc(N)cc1)Cc1cccc2ccccc12 [compound 804, [(4-aminobenzyl)(1-naphthylmethyl)amino]acetonitrile] |  |  | ≧80% | 20 to 30 µM | > 100 µM | ns | 

Continued, in another order:

Row | % bond reversion (at 10 μM) (receptor EGFP-NK2R [1]) | % al (at 10 μM) (receptor EGFP-NK2R [2]) | % al (max): maximum value observed for the increase in amplitude of the rapid dissociation rate (receptor EGFP-NK2R [2]) | EC50 (receptor EGFP-NK2R [2]) | IC50 (receptor EGFP-NK2R [1]) | Structure (SMILES) | Ca Rep.: ability to evoke a calcium response on cells not expressing the EGFP-NK2R receptor [3] | also measured
13 | 16% | 25% |  |  |  | N#CCN(Cc1ccc2ccccc2c1)Cc1ccccc1Br [CV1-80, [(2-bromobenzyl)(2-naphthylmethyl)amino]acetonitrile] |  | 
14 | 15% | 22% |  |  |  | N#CCN(Cc1ccccc1)Cc1c[nH]c2ccccc12 [CV1-81] |  | 
15 | 6% | 22% |  |  |  | N#CCN(Cc1ccc(CCc2ccccc2)cc1)Cc1ccc2ccccc2c1 [CV1-135] |  | 
16 |  |  | 65% | 1 to 5 µM |  | c1ccc(CNc2ncc(-c3ccccc3)s2)cc1 [F3, Benzyl-(5-phenyl-thiazol-2-yl)-amine] |  | 
17 |  |  | ≧60% | ≥ 50 µM | 90 µM | O=C(CC(Nc1ncc(-c2ccccc2)s1)c1ccccc1)c1ccccc1 (stereo not drawn) [F7, 1,3-Diphenyl-3-(5-phenyl-thiazol-2-ylamino)-propan-1-one] | ns | 
18 |  |  | ns |  | > 50 µM | Cc1ccc(NC(CC(=O)c2ccccc2)c2ccccc2)nc1 (stereo not drawn) [F9, 3-(5-Methyl-pyridin-2-ylamino)-1,3-diphenyl-propan-1-one] |  | EC50 (μM): concentration of compound causing a 50% increase (relative to the maximum value) in the percentage of the amplitude of the rapid dissociation rate (receptor EGFP-NK2R [2]): ns
19 |  |  | ns |  | 46 µM | NCCCC(NC(=O)c1ccccc1)C(=O)NC(Cc1ccccc1)C(N)=O (stereo not drawn) [G6, N-(4-amino-1-(1-carbamoyl-2-phenyl-ethylcarbamoyl)-butyl)-benzamide] |  | EC50 (μM): concentration of compound causing a 50% increase (relative to the maximum value) in the percentage of the amplitude of the rapid dissociation rate (receptor EGFP-NK2R [2]): ns; effect on the dissociation kinetics of NKA-Bo (receptor EGFP-NK2R [2]; dissociation by non-fluorescent NKA in the presence of compound): does not alter the dissociation rate; amplitude of the rapid dissociation of NKA-Bo (% of total signal) (receptor EGFP-NK2R [2]; [4]): 66%; amplitude of the slow dissociation of NKA-Bo (% of total signal) (receptor EGFP-NK2R [2]; [4]): 33%
20 |  |  | 80% | 50 to 80 µM | > 100 µM | Clc1ccc(CNCc2ccc3ccccc3c2)cc1 [H6, (4-Chloro-benzyl)-naphthalen-2-ylmethyl-amine] |  | 
21 |  |  | >60% | > 50 µM | ≥ 100 µM | NC(=O)CN(Cc1ccc2ccccc2c1)c1ccccc1 [H10, 2-(Naphthalen-2-ylmethyl-phenyl-amino)-acetamide] | ns | 
22 |  |  | 90% | 10 to 20 µM | > 200 µM | COC(=O)CN(Cc1ccccc1)Cc1ccc2ccccc2c1 [compound 806, methyl [benzyl(2-naphtylmethyl)amino]acetate] | ns | 
23 |  |  | ≧90% |  |  | NC(=O)CN(Cc1ccccc1)Cc1ccc2ccccc2c1 [compound 807, 2-[benzyl(2-naphthylmethyl)amino]acetamide] | +? | 
24 |  |  | ≧70% | 20 to 30 µM | > 200 µM | C#CCN(Cc1ccccc1)Cc1ccc2ccccc2c1 [compound 808, N-benzyl-N-(2-naphthylmethyl)-N-prop-2-ynylamine] |  | 
25 |  |  | ≧75% | 1 to 20 µM | > 100 µM | N#CCN(Cc1ccccc1)c1ncc(-c2ccccc2)s1 [compound 809, [benzyl(5-phenyl-1,3-thiazol-2-yl)amino]acetonitrile] |  | 
